Experimental findings from ChEMBL document CHEMBL1122154, “Serotonin receptor affinity of cathinone and related analogues” (J Med Chem, 1982) are described below.

Broadly, the pA2 is the negative logarithm of the molar antagonist concentration that doubles the agonist concentration needed for the same response. Read a high pA2 as a more potent antagonist.

The assay addresses Serotonin (5-HT) receptor. Description: Affinity for 5-hydroxytryptamine receptor was determined using male Dawley rat fundus preparation. The assay is classed as protein assay.
`COc1ccc2c(c1)C(CN)CCO2` (stereo not given) registered a pA2 of 5.94.
In turn, `NC1CCc2ccccc2C1=O` (stereo not given) yielded a pA2 of 6.04.
The figure for `NC1CCc2ccccc2C1` (stereo not given) is 5.61; for `NCC1=CCOc2ccccc21` it is 4.94; for `COc1ccc2c(c1)C(CN)=CCO2` it is 6.12.
The compound `NCC1=CCCc2ccccc21` had a pA2 of 5.81.
The figure for `NCC(N)c1ccccc1` (racemic) is 4.9; for `COc1ccc(C(=O)C(C)N)cc1OC` (racemic) it is 6.14; for `CC(N)C(=O)c1ccc(O)cc1` (racemic) [HYDROXYLATED COMPLETELY DELAKYLATED DIETHYLPROPION] it is 5.3.
The figure for `CC(N)C(=O)c1ccccc1` (stereo not given) [DEALKYLATED DIETHYLPROPION] is 5.86.
